For six compounds, Emax and EC50 results are on record in US20260176320A1, “MODULATORS OF G-PROTEIN COUPLED RECEPTORS” (priority 2018, published 2026).

Molecules are shown by their SMILES. Like-named read-outs stand apart in the source and are kept apart here. Numbered stars: 1 amine (or outer) side, 2 acyl side, 3 side chain; on linkers, the order of the positions; unused ones are H or OH. Square brackets hold non-standard residues; d marks the D form. Side chains are listed from the residue outwards. Peptide text beside a SMILES is read from it. * marks the point of attachment. γGlu = O=C(O)[C@H](CCC(=O)[*:2])N[*:1]; X2 = O=C(CSCC(=O)*)NCCN1C(=O)CSC1=O; Palmitoyl = CCCCCCCCCCCCCCCC(=O)*; Aib = CC(C)(N)C(=O)O Some results are limits rather than exact numbers.

Broadly, the Emax is the greatest response seen or fitted, relative to the assay's reference.

One experiment addresses GLP-1R (Homo sapiens, UniProt P43220). The experiment can be described thus: HitHunter cAMP assay (GLP-1R). It counts as cell-based. As to conditions: cAMP; for Emax: read-out: (Emax) GLP-1R. In a few lines:
(§1)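 Cells were resuspended in HBSS plus HEPES, IBMX (625 μM) and BSA, then dispensed with antibody at 10,000 per well. Agonists followed as 22-point twofold series, 30 min at room temperature. Antibody reagent and detection steps ran 1 h and overnight in the dark before luminescence.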
A general note: cAMP levels reflect the balance of adenylyl cyclase and phosphodiesterase activity.

A further experiment has as its target T1, GIP-R (Homo sapiens, UniProt P48546).
T1 sequence (P48546 22-466): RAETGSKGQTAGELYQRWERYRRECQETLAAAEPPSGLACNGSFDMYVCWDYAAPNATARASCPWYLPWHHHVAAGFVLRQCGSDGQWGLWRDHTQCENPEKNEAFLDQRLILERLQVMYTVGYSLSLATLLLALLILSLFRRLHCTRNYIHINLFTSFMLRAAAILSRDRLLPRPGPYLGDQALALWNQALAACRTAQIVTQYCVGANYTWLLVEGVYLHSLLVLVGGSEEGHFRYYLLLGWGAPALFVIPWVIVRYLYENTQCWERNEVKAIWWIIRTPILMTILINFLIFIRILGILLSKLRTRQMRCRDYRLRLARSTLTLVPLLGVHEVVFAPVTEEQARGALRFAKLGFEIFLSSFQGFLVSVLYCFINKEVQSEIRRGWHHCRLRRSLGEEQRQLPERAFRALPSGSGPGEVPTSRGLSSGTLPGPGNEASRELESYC
The experiment can be described thus: HitHunter cAMP assay (GIP-R). It is filed as cell-based. As to conditions: cAMP; for Emax: read-out: (Emax) GIP-R. The method, boiled down: as §1

Sequence of GLP-1R (P43220 24-463): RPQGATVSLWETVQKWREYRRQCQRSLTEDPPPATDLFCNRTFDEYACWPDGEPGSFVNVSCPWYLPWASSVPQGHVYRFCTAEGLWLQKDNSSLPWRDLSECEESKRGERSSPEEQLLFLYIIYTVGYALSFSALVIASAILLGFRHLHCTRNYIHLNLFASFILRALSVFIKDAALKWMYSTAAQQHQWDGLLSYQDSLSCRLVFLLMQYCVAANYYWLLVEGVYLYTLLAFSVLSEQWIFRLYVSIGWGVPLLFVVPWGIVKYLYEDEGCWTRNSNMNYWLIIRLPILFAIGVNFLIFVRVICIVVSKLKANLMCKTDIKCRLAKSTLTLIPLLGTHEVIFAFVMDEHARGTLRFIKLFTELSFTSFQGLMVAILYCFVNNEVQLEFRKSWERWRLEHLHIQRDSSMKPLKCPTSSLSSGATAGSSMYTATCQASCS

Take `CC[C@H](C)[C@H](NC(=O)[C@H](CO)NC(=O)[C@H](Cc1ccc(O)cc1)NC(=O)[C@H](CC(=O)O)NC(=O)[C@H](CO)NC(=O)[C@@H](NC(=O)[C@H](Cc1ccccc1)NC(=O)[C@@H](NC(=O)CNC(=O)[C@H](CCC(=O)O)NC(=O)CCCCCCCCN1C(=O)CSC1=O)[C@@H](C)O)[C@@H](C)O)C(=O)N[C@@H](Cc1ccc(O)cc1)C(=O)N[C@@H](CC(C)C)C(=O)N[C@@H](CC(=O)O)C(=O)N[C@@H](CCCCN)C(=O)N[C@@H](CCC(N)=O)C(=O)N[C@@H](C)C(=O)N[C@@H](C)C(=O)NC(C)(C)C(=O)N[C@@H](CCC(=O)O)C(=O)N[C@@H](Cc1ccccc1)C(=O)N[C@H](C(=O)N[C@@H](CC(N)=O)C(=O)N[C@@H](Cc1c[nH]c2ccccc12)C(=O)N[C@@H](CC(C)C)C(=O)N[C@@H](CC(C)C)C(=O)N[C@@H](C)C(=O)NCC(=O)NCC(=O)N1CCC[C@H]1C(=O)N[C@@H](CO)C(=O)N[C@@H](CO)C(=O)NCC(=O)N[C@@H](C)C(=O)N1CCC[C@H]1C(=O)N1CCC[C@H]1C(=O)N1CCC[C@H]1C(=O)N[C@@H](CO)C(=O)N[C@@H](CCCCN)C(N)=O)C(C)C` [Compound 174]: the Emax fell in the range of 17 to 73% at GLP-1R (Table 3), 17 to 73% on GLP-1R (Table 3A), 30 to 66% on GIP-R (Table 3) and 30 to 66% on GIP-R (Table 3A). Also, the EC50 fell in the range of 10 to 1000 nM at GLP-1R (read-out: EC50 GLP-1R/nM, Table 3); 10 to 1000 nM at GLP-1R (read-out: EC50 GLP-1R/nM, Table 3A); 100 to 1000 nM on GIP-R (EC50 GIP-R/nM, Table 3); 100 to 1000 nM on GIP-R (EC50 GIP-R/nM, Table 3A).

`CC[C@H](C)[C@H](NC(=O)[C@H](CO)NC(=O)[C@H](Cc1ccc(O)cc1)NC(=O)[C@H](CC(=O)O)NC(=O)[C@H](CO)NC(=O)[C@@H](NC(=O)[C@H](Cc1ccccc1)NC(=O)[C@@H](NC(=O)CNC(=O)[C@H](CCC(=O)O)NC(=O)C(C)(C)C(=O)NCCN1C(=O)c2ccc(C)cc2C1=O)[C@@H](C)O)[C@@H](C)O)C(=O)N[C@@H](Cc1ccc(O)cc1)C(=O)N[C@@H](CC(C)C)C(=O)N[C@@H](CC(=O)O)C(=O)N[C@@H](CCCCN)C(=O)N[C@@H](CCC(N)=O)C(=O)N[C@@H](C)C(=O)N[C@@H](C)C(=O)NC(C)(C)C(=O)N[C@@H](CCC(=O)O)C(=O)N[C@@H](Cc1ccccc1)C(=O)N[C@H](C(=O)N[C@@H](CC(N)=O)C(=O)N[C@@H](Cc1c[nH]c2ccccc12)C(=O)N[C@@H](CC(C)C)C(=O)N[C@@H](CC(C)C)C(=O)N[C@@H](C)C(=O)NCC(=O)NCC(=O)N1CCC[C@H]1C(=O)N[C@@H](CO)C(=O)N[C@@H](CO)C(=O)NCC(=O)N[C@@H](C)C(=O)N1CCC[C@H]1C(=O)N1CCC[C@H]1C(=O)N1CCC[C@H]1C(=O)N[C@@H](CO)C(=O)N[C@@H](CCCCN)C(N)=O)C(C)C` [Compound 127]: the EC50 at GLP-1R (EC50 GLP-1R/nM, Table 3) fell in the range of 1 to 10 nM; on GLP-1R (EC50 GLP-1R/nM, Table 3A), 1 to 10 nM; at GIP-R (EC50 GIP-R/nM, Table 3), 1 to 10 nM; on GIP-R (EC50 GIP-R/nM, Table 3A), 1 to 10 nM. Further, the Emax at GLP-1R (Table 3) was 95 to 107%; at GLP-1R (Table 3A), 95 to 107%; on GIP-R (Table 3) it was 98 to 102%; on GIP-R (Table 3A), 98 to 102%.

In the case of `CCCCCCCCCCCCCCCC(=O)N[C@@H](CCC(=O)NCCCC[C@H](NC(=O)[C@H](CO)NC(=O)[C@@H]1CCCN1C(=O)[C@@H]1CCCN1C(=O)[C@@H]1CCCN1C(=O)[C@H](C)NC(=O)CNC(=O)[C@H](CO)NC(=O)[C@H](CO)NC(=O)[C@@H]1CCCN1C(=O)CNC(=O)CNC(=O)[C@H](C)NC(=O)[C@H](CC(C)C)NC(=O)[C@H](CC(C)C)NC(=O)[C@H](Cc1c[nH]c2ccccc12)NC(=O)[C@H](CC(N)=O)NC(=O)[C@@H](NC(=O)[C@H](Cc1ccccc1)NC(=O)[C@H](CCC(=O)O)NC(=O)C(C)(C)NC(=O)[C@H](C)NC(=O)[C@H](C)NC(=O)[C@H](CCC(N)=O)NC(=O)[C@H](CCCCN)NC(=O)[C@H](CC(=O)O)NC(=O)[C@H](CC(C)C)NC(=O)[C@H](Cc1ccc(O)cc1)NC(=O)[C@@H](NC(=O)[C@H](CO)NC(=O)[C@H](Cc1ccc(O)cc1)NC(=O)[C@H](CC(=O)O)NC(=O)[C@H](CO)NC(=O)[C@@H](NC(=O)[C@H](Cc1ccccc1)NC(=O)[C@@H](NC(=O)CNC(=O)[C@H](CCC(=O)O)NC(=O)CSCC(=O)NCCN1C(=O)[C@H]2CC[C@@H]1C2)[C@@H](C)O)[C@@H](C)O)[C@@H](C)CC)C(C)C)C(N)=O)C(=O)O` [Compound 289], the EC50 was less than 0.1 nM on GLP-1R (EC50 GLP-1R/nM, Table 3A) and 10 to 100 nM at GIP-R (EC50 GIP-R/nM, Table 3A). Besides, the figures for the Emax at GLP-1R (Table 3A) and at GIP-R (Table 3A) were 100% and 20%, respectively.

Consider `CCCCCCCCCCCCCCCC(=O)N[C@@H](CCC(=O)NCCCC[C@H](NC(=O)[C@@H](NC(=O)[C@H](Cc1ccccc1)NC(=O)[C@H](CCC(=O)O)NC(=O)C(C)(C)NC(=O)[C@H](C)NC(=O)[C@H](C)NC(=O)[C@H](CCC(N)=O)NC(=O)[C@H](CCCCN)NC(=O)[C@H](CC(=O)O)NC(=O)[C@H](CC(C)C)NC(=O)[C@H](Cc1ccc(O)cc1)NC(=O)[C@@H](NC(=O)[C@H](CO)NC(=O)[C@H](Cc1ccc(O)cc1)NC(=O)[C@H](CC(=O)O)NC(=O)[C@H](CO)NC(=O)[C@@H](NC(=O)[C@H](Cc1ccccc1)NC(=O)[C@@H](NC(=O)CNC(=O)[C@H](CCC(=O)O)NC(=O)CSCC(=O)NCCN1C(=O)CSC1=O)[C@@H](C)O)[C@@H](C)O)[C@@H](C)CC)C(C)C)C(=O)N[C@@H](Cc1c[nH]c2ccccc12)C(=O)N[C@@H](CC(C)C)C(=O)N[C@@H](CC(C)C)C(=O)N[C@@H](C)C(=O)NCC(=O)NCC(=O)N1CCC[C@H]1C(=O)N[C@@H](CO)C(=O)N[C@@H](CO)C(=O)NCC(=O)N[C@@H](C)C(=O)N1CCC[C@H]1C(=O)N1CCC[C@H]1C(=O)N1CCC[C@H]1C(=O)N[C@@H](CO)C(=O)N[C@@H](CCCCN)C(N)=O)C(=O)O` [Compound 197] (X2-EGTFTSDYSIYLDKQAA[Aib]EFVK([γGlu-Palmitoyl])WLLAGGPSSGAPPPSK-NH2), for which the Emax on GLP-1R (Table 3A) was 95%; on GIP-R (Table 3A) it was 20%. Also, the EC50 fell in the range of 10 to 100 nM on GLP-1R (Table 3A, read-out: EC50 GLP-1R/nM) and 100 to 1000 nM at GIP-R (Table 3A, read-out: EC50 GIP-R/nM).

As for `CCCCCCCCCCCCCCCC(=O)N[C@@H](CCC(=O)NCCCC[C@H](NC(=O)[C@H](CO)NC(=O)[C@@H]1CCCN1C(=O)[C@@H]1CCCN1C(=O)[C@@H]1CCCN1C(=O)[C@H](C)NC(=O)CNC(=O)[C@H](CO)NC(=O)[C@H](CO)NC(=O)[C@@H]1CCCN1C(=O)CNC(=O)CNC(=O)[C@H](C)NC(=O)[C@H](CC(C)C)NC(=O)[C@H](CC(C)C)NC(=O)[C@H](Cc1c[nH]c2ccccc12)NC(=O)[C@H](CC(N)=O)NC(=O)[C@@H](NC(=O)[C@H](Cc1ccccc1)NC(=O)[C@H](CCC(=O)O)NC(=O)C(C)(C)NC(=O)[C@H](C)NC(=O)[C@H](C)NC(=O)[C@H](CCC(N)=O)NC(=O)[C@H](CCCCN)NC(=O)[C@H](CC(=O)O)NC(=O)[C@H](CC(C)C)NC(=O)[C@H](Cc1ccc(O)cc1)NC(=O)[C@@H](NC(=O)[C@H](CO)NC(=O)[C@H](Cc1ccc(O)cc1)NC(=O)[C@H](CC(=O)O)NC(=O)[C@H](CO)NC(=O)[C@@H](NC(=O)[C@H](Cc1ccccc1)NC(=O)[C@@H](NC(=O)CNC(=O)[C@H](CCC(=O)O)NC(=O)CSCC(=O)NCCN1C(=O)[C@@H]2CC[C@H]1C2)[C@@H](C)O)[C@@H](C)O)[C@@H](C)CC)C(C)C)C(N)=O)C(=O)O` [Compound 291], the EC50 at GLP-1R (EC50 GLP-1R/nM, Table 3A) is 0.1 to 1 nM; on GIP-R (EC50 GIP-R/nM, Table 3A), 1 to 10 nM. Moreover, the Emax at GLP-1R (Table 3A) was 100%; at GIP-R (Table 3A), 60%.

Turning to `CCCCCCCCCCCCCCCC(=O)N[C@@H](CCC(=O)NCCCC[C@H](NC(=O)[C@H](CO)NC(=O)[C@@H]1CCCN1C(=O)[C@@H]1CCCN1C(=O)[C@@H]1CCCN1C(=O)[C@H](C)NC(=O)CNC(=O)[C@H](CO)NC(=O)[C@H](CO)NC(=O)[C@@H]1CCCN1C(=O)CNC(=O)CNC(=O)[C@H](C)NC(=O)[C@H](CC(C)C)NC(=O)[C@H](CC(C)C)NC(=O)[C@H](Cc1c[nH]c2ccccc12)NC(=O)[C@H](CC(N)=O)NC(=O)[C@@H](NC(=O)[C@H](Cc1ccccc1)NC(=O)[C@H](CCC(=O)O)NC(=O)C(C)(C)NC(=O)[C@H](C)NC(=O)[C@H](C)NC(=O)[C@H](CCC(N)=O)NC(=O)[C@H](CCCCN)NC(=O)[C@H](CC(=O)O)NC(=O)[C@H](CC(C)C)NC(=O)[C@H](Cc1ccc(O)cc1)NC(=O)[C@@H](NC(=O)[C@H](CO)NC(=O)[C@H](Cc1ccc(O)cc1)NC(=O)[C@H](CC(=O)O)NC(=O)[C@H](CO)NC(=O)[C@@H](NC(=O)[C@H](Cc1ccccc1)NC(=O)[C@@H](NC(=O)CNC(=O)[C@H](CCC(=O)O)NC(=O)CSCC(=O)NCCN1C(=O)CC(c2ccccc2)C1=O)[C@@H](C)O)[C@@H](C)O)[C@@H](C)CC)C(C)C)C(N)=O)C(=O)O` (mixture of isomers) [Compound 99], the EC50 on GLP-1R (EC50 GLP-1R/nM, Table 3) is 1 to 10 nM; on GLP-1R (EC50 GLP-1R/nM, Table 3A) it was 1 to 10 nM; at GIP-R (EC50 GIP-R/nM, Table 3), more than 1000 nM; on GIP-R (read-out: EC50 GIP-R/nM, Table 3A), more than 1000 nM. In addition, the Emax on GLP-1R (Table 3) and on GLP-1R (Table 3A) was 102% throughout. For the same compound, the maximum response (Emax) at 1 µM on GIP-R (read-out: (Emax) GIP-R at 1 μM, Table 3, at 1 μM) came out at 11%.
